Species on record: Rattus norvegicus
Assay: Open TG-GATES - Regimen: Single
Format: toxicity, organism-based, Sprague-Dawley
Parameters: regimen Single, gender Male, age 6 weeks
Details: in vivo, po, route gavage; for APTT / Bas / Eos / Fbg / Hb / Ht / Lym / MCH / MCHC / MCV / Mono / Neu / PT / Plat / RBC / Ret / WBC: tissue Blood; for KIDNEY_L / KIDNEY_R / KIDNEY_TOTAL: tissue Kidney; for LIVER: tissue Liver; for A/G / ALP / ALT / AST / BUN / CRE / Ca / Cl / DBIL / GLC / IP / K / LDH / Na / PL / RALB / TBIL / TC / TG / TP / gamma-GTP: tissue Plasma
[1] = 60 mg/kg, 3 h, dose level Middle
[2] = 60 mg/kg, 6 h, dose level Middle
[3] = 60 mg/kg, 9 h, dose level Middle
[4] = 60 mg/kg, 24 h, dose level Middle
[5] = 200 mg/kg, 3 h, dose level High
[6] = 200 mg/kg, 6 h, dose level High
[7] = 200 mg/kg, 9 h, dose level High
[8] = 200 mg/kg, 24 h, dose level High

## Cn1c(=O)c2[nH]cnc2n(C)c1=O.O [THEOPHYLLINE]
[1]
  TERMINAL_BW: 215.5 g
  APTT: 22.1 s
  Bas: 0%
  Eos: 1.2%
  Fbg: 306 mg/dL
  Hb: 12.6 g/dL
  Ht: 38.3%
  Lym: 68.6%
  MCH: 20.2 pg
  MCHC: 32.9%
  MCV: 61.6 fL
  Mono: 2.2%
  Neu: 26.4%
  PT: 15.4 s
  Plat: 117 x10_4/uL
  RBC: 622.6 x10_4/ul
  Ret: 7.6%
  WBC: 72.7 x10_2/uL
  KIDNEY_L: 1 g
  KIDNEY_R: 1 g
  KIDNEY_TOTAL: 1.9 g
  LIVER: 9.3 g
  A/G: 1.3
  ALP: 1415.2 IU/L
  ALT: 44.8 IU/L
  AST: 80.2 IU/L
  BUN: 13 mg/dL
  CRE: 0.2 mg/dL
  Ca: 10.2 mg/dL
  Cl: 108 meq/L
  DBIL: 0 mg/dL
  GLC: 184.4 mg/dL
  IP: 7.3 mg/dL
  K: 3.5 meq/L
  LDH: 184.2 IU/L
  Na: 140.6 meq/L
  PL: 120 mg/dL
  RALB: 3.2 g/dL
  TBIL: 0.022 mg/dL
  TC: 67.8 mg/dL
  TG: 33.6 mg/dL
  TP: 5.6 g/dL
  gamma-GTP: 1.6 IU/L
[2]
  TERMINAL_BW: 215.8 g
  APTT: 23.9 s
  Bas: 0%
  Eos: 0.8%
  Fbg: 302.8 mg/dL
  Hb: 13.1 g/dL
  Ht: 40%
  Lym: 75.2%
  MCH: 20.9 pg
  MCHC: 32.7%
  MCV: 64 fL
  Mono: 3.2%
  Neu: 19.4%
  PT: 15.6 s
  Plat: 119.8 x10_4/uL
  RBC: 626.8 x10_4/ul
  Ret: 7.4%
  WBC: 74.1 x10_2/uL
  KIDNEY_L: 0.9 g
  KIDNEY_R: 0.9 g
  KIDNEY_TOTAL: 1.8 g
  LIVER: 9 g
  A/G: 1.2
  ALP: 1323.6 IU/L
  ALT: 41.6 IU/L
  AST: 86 IU/L
  BUN: 11.6 mg/dL
  CRE: 0.2 mg/dL
  Ca: 10.6 mg/dL
  Cl: 108.4 meq/L
  DBIL: 0 mg/dL
  GLC: 191 mg/dL
  IP: 8.2 mg/dL
  K: 3.5 meq/L
  LDH: 212 IU/L
  Na: 140.4 meq/L
  PL: 126 mg/dL
  RALB: 3.2 g/dL
  TBIL: 0.018 mg/dL
  TC: 70.2 mg/dL
  TG: 36 mg/dL
  TP: 5.7 g/dL
  gamma-GTP: 1.2 IU/L
[3]
  TERMINAL_BW: 211.1 g
  APTT: 22.3 s
  Bas: 0%
  Eos: 0.8%
  Fbg: 349.8 mg/dL
  Hb: 12.9 g/dL
  Ht: 38.8%
  Lym: 73.2%
  MCH: 20.6 pg
  MCHC: 33.4%
  MCV: 61.8 fL
  Mono: 2%
  Neu: 22%
  PT: 15.8 s
  Plat: 120.3 x10_4/uL
  RBC: 630.2 x10_4/ul
  Ret: 7.2%
  WBC: 77.3 x10_2/uL
  KIDNEY_L: 1 g
  KIDNEY_R: 1 g
  KIDNEY_TOTAL: 2 g
  LIVER: 8.6 g
  A/G: 1.2
  ALP: 1618.2 IU/L
  ALT: 43.8 IU/L
  AST: 87.2 IU/L
  BUN: 9.8 mg/dL
  CRE: 0.2 mg/dL
  Ca: 10.7 mg/dL
  Cl: 107.2 meq/L
  DBIL: 0 mg/dL
  GLC: 165.2 mg/dL
  IP: 8.3 mg/dL
  K: 3.7 meq/L
  LDH: 168.2 IU/L
  Na: 140.2 meq/L
  PL: 121.6 mg/dL
  RALB: 3.2 g/dL
  TBIL: 0.022 mg/dL
  TC: 73.8 mg/dL
  TG: 23.8 mg/dL
  TP: 5.9 g/dL
  gamma-GTP: 1.2 IU/L
[4]
  TERMINAL_BW: 225.6 g
  APTT: 22.2 s
  Bas: 0%
  Eos: 0.8%
  Fbg: 293 mg/dL
  Hb: 13.9 g/dL
  Ht: 41.4%
  Lym: 76.2%
  MCH: 20.6 pg
  MCHC: 33.6%
  MCV: 61.2 fL
  Mono: 3%
  Neu: 18.6%
  PT: 16 s
  Plat: 115 x10_4/uL
  RBC: 676.8 x10_4/ul
  Ret: 6.5%
  WBC: 97.8 x10_2/uL
  KIDNEY_L: 1 g
  KIDNEY_R: 1 g
  KIDNEY_TOTAL: 2 g
  LIVER: 10.1 g
  A/G: 1.2
  ALP: 1662.4 IU/L
  ALT: 42.8 IU/L
  AST: 73.4 IU/L
  BUN: 15.6 mg/dL
  CRE: 0.2 mg/dL
  Ca: 10.9 mg/dL
  Cl: 106 meq/L
  DBIL: 0.006 mg/dL
  GLC: 191.2 mg/dL
  IP: 8.8 mg/dL
  K: 4.1 meq/L
  LDH: 168.4 IU/L
  Na: 142.2 meq/L
  PL: 135.4 mg/dL
  RALB: 3 g/dL
  TBIL: 0.006 mg/dL
  TC: 78.2 mg/dL
  TG: 60.6 mg/dL
  TP: 5.5 g/dL
  gamma-GTP: 1.4 IU/L
[5]
  TERMINAL_BW: 215.6 g
  APTT: 22.6 s
  Bas: 0%
  Eos: 1%
  Fbg: 278 mg/dL
  Hb: 12.3 g/dL
  Ht: 37.4%
  Lym: 67.2%
  MCH: 20.1 pg
  MCHC: 32.9%
  MCV: 60.9 fL
  Mono: 3%
  Neu: 28%
  PT: 15.9 s
  Plat: 113.5 x10_4/uL
  RBC: 614.2 x10_4/ul
  Ret: 7.9%
  WBC: 58.9 x10_2/uL
  KIDNEY_L: 0.9 g
  KIDNEY_R: 0.9 g
  KIDNEY_TOTAL: 1.8 g
  LIVER: 9.1 g
  A/G: 1.3
  ALP: 1241.4 IU/L
  ALT: 43.8 IU/L
  AST: 93.6 IU/L
  BUN: 13.8 mg/dL
  CRE: 0.1 mg/dL
  Ca: 10 mg/dL
  Cl: 104.4 meq/L
  DBIL: 0 mg/dL
  GLC: 202.8 mg/dL
  IP: 7.2 mg/dL
  K: 3.2 meq/L
  LDH: 215.8 IU/L
  Na: 136.8 meq/L
  PL: 109.8 mg/dL
  RALB: 3.1 g/dL
  TBIL: 0.014 mg/dL
  TC: 66.8 mg/dL
  TG: 20 mg/dL
  TP: 5.4 g/dL
  gamma-GTP: 1.8 IU/L
[6]
  TERMINAL_BW: 216 g
  APTT: 22.3 s
  Bas: 0%
  Eos: 0.2%
  Fbg: 329.2 mg/dL
  Hb: 13.1 g/dL
  Ht: 39.7%
  Lym: 58.6%
  MCH: 20.6 pg
  MCHC: 33.1%
  MCV: 62.3 fL
  Mono: 3.6%
  Neu: 35.6%
  PT: 15.5 s
  Plat: 123.7 x10_4/uL
  RBC: 636.8 x10_4/ul
  Ret: 7.6%
  WBC: 75.8 x10_2/uL
  KIDNEY_L: 1 g
  KIDNEY_R: 1 g
  KIDNEY_TOTAL: 1.9 g
  LIVER: 9.5 g
  A/G: 1.3
  ALP: 1423 IU/L
  ALT: 46.2 IU/L
  AST: 111.4 IU/L
  BUN: 13.8 mg/dL
  CRE: 0.2 mg/dL
  Ca: 10.4 mg/dL
  Cl: 108.2 meq/L
  DBIL: 0 mg/dL
  GLC: 206.6 mg/dL
  IP: 6.8 mg/dL
  K: 3.5 meq/L
  LDH: 212.6 IU/L
  Na: 140.2 meq/L
  PL: 127 mg/dL
  RALB: 3.4 g/dL
  TBIL: 0.016 mg/dL
  TC: 72 mg/dL
  TG: 22.2 mg/dL
  TP: 6.1 g/dL
  gamma-GTP: 1.4 IU/L
[7]
  TERMINAL_BW: 212.2 g
  APTT: 24.6 s
  Bas: 0%
  Eos: 0%
  Fbg: 335.8 mg/dL
  Hb: 12.9 g/dL
  Ht: 38.7%
  Lym: 69.4%
  MCH: 20.3 pg
  MCHC: 33.4%
  MCV: 60.9 fL
  Mono: 1.4%
  Neu: 28.6%
  PT: 15.5 s
  Plat: 120.5 x10_4/uL
  RBC: 634.8 x10_4/ul
  Ret: 7.6%
  WBC: 51.8 x10_2/uL
  KIDNEY_L: 0.9 g
  KIDNEY_R: 0.9 g
  KIDNEY_TOTAL: 1.8 g
  LIVER: 8.7 g
  A/G: 1.3
  ALP: 1474.4 IU/L
  ALT: 38.8 IU/L
  AST: 86.2 IU/L
  BUN: 12 mg/dL
  CRE: 0.2 mg/dL
  Ca: 10.8 mg/dL
  Cl: 105 meq/L
  DBIL: 0 mg/dL
  GLC: 193.6 mg/dL
  IP: 7.1 mg/dL
  K: 3.5 meq/L
  LDH: 182.8 IU/L
  Na: 139 meq/L
  PL: 141 mg/dL
  RALB: 3.4 g/dL
  TBIL: 0.026 mg/dL
  TC: 77.4 mg/dL
  TG: 30.6 mg/dL
  TP: 6.2 g/dL
  gamma-GTP: 1.2 IU/L
[8]
  TERMINAL_BW: 224.5 g
  APTT: 21.6 s
  Bas: 0%
  Eos: 0.4%
  Fbg: 370.4 mg/dL
  Hb: 13.9 g/dL
  Ht: 41.2%
  Lym: 70.2%
  MCH: 20.7 pg
  MCHC: 33.6%
  MCV: 61.4 fL
  Mono: 3.2%
  Neu: 24%
  PT: 16.3 s
  Plat: 124.1 x10_4/uL
  RBC: 670.4 x10_4/ul
  Ret: 7%
  WBC: 103.6 x10_2/uL
  KIDNEY_L: 0.9 g
  KIDNEY_R: 1 g
  KIDNEY_TOTAL: 1.9 g
  LIVER: 9.4 g
  A/G: 1.2
  ALP: 1552.6 IU/L
  ALT: 44.8 IU/L
  AST: 76.2 IU/L
  BUN: 16.4 mg/dL
  CRE: 0.2 mg/dL
  Ca: 11.2 mg/dL
  Cl: 104.4 meq/L
  DBIL: 0 mg/dL
  GLC: 186.4 mg/dL
  IP: 8.4 mg/dL
  K: 4 meq/L
  LDH: 180 IU/L
  Na: 141.6 meq/L
  PL: 129.8 mg/dL
  RALB: 3.1 g/dL
  TBIL: 0.018 mg/dL
  TC: 75 mg/dL
  TG: 38.8 mg/dL
  TP: 5.6 g/dL
  gamma-GTP: 1.4 IU/L
